Some test systems named below: A498 renal; NCI-H522 lung; MDA-MB-435; SF-295 CNS; OVCAR-4 ovarian; SW-620 colon; IGROV1 ovarian; OVCAR-5 ovarian; UACC-257 melanoma; RXF 393 renal.
What all share (experiment): NCI anticancer screen, dose series, 48 h

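Following 48 hours of exposure in 96-well plates, responses at five concentrations were used to interpolate endpoints linearly. Here, GI50 denotes the concentration required for 50% inhibition of growth. TGI denotes the concentration required for complete inhibition of growth.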

For the compound `C#CCNCCN1C(=O)c2ccc3c4c(ccc(c24)C1=O)C(=O)N(CCNCC#C)C3=O`, the GI50 is 7.14 µM with A498 renal; 3.98 µM in the assay with NCI-H522 lung; 1.52 µM in the assay with MDA-MB-435; 2.15 µM with SF-295 CNS; 1.96 µM in the assay on OVCAR-4 ovarian; 1.92 µM with SW-620 colon. The GI50 in the assay on IGROV1 ovarian was 2.07 µM; in the assay on OVCAR-5 ovarian, 8.63 µM; in the assay with UACC-257 melanoma it was 3.08 µM; in the assay on RXF 393 renal it was 1.79 µM. In addition, the TGI in the assay with A498 renal stood at 14.1 µM; in the assay on NCI-H522 lung, 10.9 µM; in the assay with MDA-MB-435, 5.85 µM; in the assay on SF-295 CNS, 15 µM; with OVCAR-4 ovarian, 7.47 µM; with SW-620 colon, 11.8 µM. For the same compound, the TGI in the assay on IGROV1 ovarian turned out to be 10.4 µM; in the assay on OVCAR-5 ovarian, 18.3 µM; in the assay on UACC-257 melanoma, 9.65 µM; with RXF 393 renal, 9.69 µM.
`O=C(Nc1ccc(Oc2cccc(F)c2)c(Cl)c1)c1cnccn1`: the GI50 in the assay with A498 renal is 3.77 µM; in the assay on NCI-H522 lung, 1.19 µM; with MDA-MB-435, 0.149 µM; in the assay on SF-295 CNS, 1.56 µM; in the assay with OVCAR-4 ovarian, 36.6 µM; with SW-620 colon, 0.366 µM. Further, the GI50 was 1.83 µM in the assay with IGROV1 ovarian, 4.27 µM in the assay with OVCAR-5 ovarian, 4.53 µM with UACC-257 melanoma and 1.23 µM in the assay on RXF 393 renal. The TGI in the assay with A498 renal was 43.3 µM; with NCI-H522 lung, over 50 µM; in the assay on MDA-MB-435, 0.683 µM; in the assay with SF-295 CNS it was over 50 µM; with OVCAR-4 ovarian, over 50 µM; with SW-620 colon, over 50 µM. The TGI in the assay on IGROV1 ovarian was over 50 µM; in the assay on OVCAR-5 ovarian it was over 50 µM; in the assay with UACC-257 melanoma it was over 50 µM; in the assay on RXF 393 renal it was 3.72 µM.
On to `O1[As]2O[As]3O[As]1O[As](O2)O3`, for which the GI50 in the assay on A498 renal is 0.0875 µM; in the assay on NCI-H522 lung, 0.256 µM; in the assay on MDA-MB-435 it was 1.64 µM; in the assay on SF-295 CNS, 2.63 µM; with OVCAR-4 ovarian, 1.06 µM; with SW-620 colon it was 0.577 µM. The GI50 was 0.457 µM in the assay on IGROV1 ovarian, 1.41 µM in the assay on OVCAR-5 ovarian, 1.5 µM in the assay with UACC-257 melanoma and 0.502 µM with RXF 393 renal. The TGI in the assay with A498 renal turned out to be 0.352 µM; in the assay with NCI-H522 lung, 1.03 µM; in the assay on MDA-MB-435, 7.69 µM; in the assay with SF-295 CNS, 9 µM; in the assay on OVCAR-4 ovarian, 11.9 µM; in the assay on SW-620 colon it was 4.54 µM. The TGI with IGROV1 ovarian stood at 2.7 µM; in the assay on OVCAR-5 ovarian, 5.32 µM; in the assay on UACC-257 melanoma it was 3.24 µM; in the assay with RXF 393 renal, 1.85 µM.
Consider `Cc1cnc(CNC(=O)c2c(=O)c3ccc(N4CCCN(C)CC4)nc3n3c2sc2ccccc23)cn1`, for which the GI50 in the assay with A498 renal was 12.2 µM; in the assay with NCI-H522 lung, 5.94 µM; in the assay with MDA-MB-435, 5.4 µM; in the assay on SF-295 CNS it was 1.32 µM; in the assay on OVCAR-4 ovarian, 1.4 µM; in the assay on SW-620 colon it was 0.237 µM. For the same compound, the GI50 was 1.89 µM with IGROV1 ovarian, 13.2 µM in the assay with OVCAR-5 ovarian, 17 µM in the assay with UACC-257 melanoma and 3.39 µM with RXF 393 renal. In addition, the TGI with A498 renal was 25.2 µM; in the assay on NCI-H522 lung, 27.2 µM; in the assay on MDA-MB-435, 21.3 µM; in the assay with SF-295 CNS it was 18.6 µM; with OVCAR-4 ovarian, 10.3 µM; in the assay with SW-620 colon, 3.9 µM. Besides, the TGI worked out at 22.2 µM in the assay with IGROV1 ovarian, 28.9 µM in the assay with OVCAR-5 ovarian, 32.9 µM in the assay with UACC-257 melanoma and 18.9 µM in the assay with RXF 393 renal.
For `C=C1c2ccoc2C[C@H]2[C@H]1CC[C@@]1(O)[C@@](C)(C(=O)OC)CCC[C@]21C`, the GI50 with A498 renal is 21.9 µM; in the assay with NCI-H522 lung, 17.5 µM; in the assay with MDA-MB-435, 23.9 µM; in the assay with SF-295 CNS, 27.9 µM; with OVCAR-4 ovarian, 86.5 µM; in the assay with SW-620 colon, 29.8 µM. The GI50 is 11.2 µM in the assay on IGROV1 ovarian, over 100 µM in the assay on OVCAR-5 ovarian, 35.7 µM with UACC-257 melanoma and 48 µM with RXF 393 renal. The TGI with A498 renal was 40.8 µM; in the assay with NCI-H522 lung, 54 µM; in the assay with MDA-MB-435, 54.3 µM; in the assay with SF-295 CNS it was 81.9 µM; in the assay on OVCAR-4 ovarian it was over 100 µM; in the assay with SW-620 colon, 85.5 µM. Also, the TGI in the assay on IGROV1 ovarian is 38.4 µM; in the assay on OVCAR-5 ovarian it was over 100 µM; in the assay on UACC-257 melanoma, over 100 µM; with RXF 393 renal, over 100 µM.
For `CC1=C(CCC(C)NCc2ccc(OCCCN3CCCCC3)cc2)C(C)(C)CCC1` (stereo not given), the GI50 with A498 renal is 1.43 µM; with NCI-H522 lung it was 1.45 µM; in the assay with MDA-MB-435, 0.216 µM; with SF-295 CNS it was 1.66 µM; with OVCAR-4 ovarian it was 1.99 µM; in the assay with SW-620 colon, 1.6 µM. The GI50 was 1.68 µM in the assay on IGROV1 ovarian, 1.91 µM in the assay on OVCAR-5 ovarian, 2.2 µM in the assay on UACC-257 melanoma and 1.6 µM in the assay on RXF 393 renal. The TGI is 2.95 µM with A498 renal; 3.21 µM with NCI-H522 lung; 0.528 µM in the assay with MDA-MB-435; 3.23 µM with SF-295 CNS; 5.5 µM with OVCAR-4 ovarian; 3.32 µM in the assay on SW-620 colon. For the same compound, the TGI was 3.89 µM in the assay on IGROV1 ovarian, 4.11 µM with OVCAR-5 ovarian, 4.03 µM with UACC-257 melanoma and 3.06 µM in the assay on RXF 393 renal.

For the origin of these results see PubChem BioAssay (NCI).
